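A five-concentration, 48-hour dose response in 96-well plates underlies each endpoint, interpolated linearly between surrounding concentrations. GI50 = concentration required for 50% inhibition of growth. TGI: total growth inhibition.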
What was measured:
Assay in all cases: NCI anticancer screen, dose series, 48 h
ACHN renal = system: ACHN renal
SF-268 CNS = system: SF-268 CNS
HOP-62 NSCLC = system: HOP-62 NSCLC
OVCAR-5 ovarian = system: OVCAR-5 ovarian
A498 renal = system: A498 renal
NCI-H522 lung = system: NCI-H522 lung
OVCAR-8 ovarian = system: OVCAR-8 ovarian
HT29 colon = system: HT29 colon
UO-31 renal = system: UO-31 renal
KM12 colon = system: KM12 colon
BT-549 breast = system: BT-549 breast
MDA-MB-231 breast = system: MDA-MB-231 breast
LOX IMVI melanoma = system: LOX IMVI melanoma
OVCAR-3 ovarian = system: OVCAR-3 ovarian
MALME-3M melanoma = system: MALME-3M melanoma
HCT-116 colon = system: HCT-116 colon
MDA-MB-435 = system: MDA-MB-435
SF-539 CNS = system: SF-539 CNS
RXF 393 renal = system: RXF 393 renal
HOP-92 NSCLC = system: HOP-92 NSCLC
786-0 renal = system: 786-0 renal
SK-OV-3 ovarian = system: SK-OV-3 ovarian
SR leukemia = system: SR leukemia
MOLT-4 leukemia = system: MOLT-4 leukemia
T-47D breast = system: T-47D breast
RPMI-8226 leukemia = system: RPMI-8226 leukemia
CAKI-1 renal = system: CAKI-1 renal
SK-MEL-5 melanoma = system: SK-MEL-5 melanoma
K-562 leukemia = system: K-562 leukemia
HCC-2998 colon = system: HCC-2998 colon
U251 CNS = system: U251 CNS
NCI-H23 lung = system: NCI-H23 lung
TK-10 renal = system: TK-10 renal
NCI-H460 lung = system: NCI-H460 lung
M14 melanoma = system: M14 melanoma
HL-60(TB) leukemia = system: HL-60(TB) leukemia
SF-295 CNS = system: SF-295 CNS
EKVX NSCLC = system: EKVX NSCLC
HCT-15 colon = system: HCT-15 colon
NCI-H226 lung = system: NCI-H226 lung
SNB-19 CNS = system: SNB-19 CNS
SK-MEL-28 melanoma = system: SK-MEL-28 melanoma
SW-620 colon = system: SW-620 colon
SNB-75 CNS = system: SNB-75 CNS
IGROV1 ovarian = system: IGROV1 ovarian
COLO 205 colon = system: COLO 205 colon
MDA-MB-468 breast = system: MDA-MB-468 breast
CCRF-CEM leukemia = system: CCRF-CEM leukemia
SN12C renal = system: SN12C renal
OVCAR-4 ovarian = system: OVCAR-4 ovarian
A549 NSCLC = system: A549 NSCLC
HS 578T breast = system: HS 578T breast
MCF7 breast = system: MCF7 breast
UACC-257 melanoma = system: UACC-257 melanoma
DU-145 prostate = system: DU-145 prostate
UACC-62 melanoma = system: UACC-62 melanoma
PC-3 prostate = system: PC-3 prostate

CC(C)Sc1nc(NCCc2c[nH]c3ccccc23)c(C#N)c(-c2ccc(F)cc2)n1
GI50 (ACHN renal): 11.1 µM
TGI (ACHN renal): 23.1 µM
GI50 (SF-268 CNS): 12.8 µM
TGI (SF-268 CNS): 42.2 µM
GI50 (HOP-62 NSCLC): 1.97 µM
TGI (HOP-62 NSCLC): 4.12 µM
GI50 (OVCAR-5 ovarian): 12.6 µM
TGI (OVCAR-5 ovarian): 25.1 µM
GI50 (A498 renal): 16.4 µM
TGI (A498 renal): 32.2 µM
GI50 (NCI-H522 lung): 12.5 µM
TGI (NCI-H522 lung): 26 µM
GI50 (OVCAR-8 ovarian): 11.6 µM
TGI (OVCAR-8 ovarian): 26.1 µM
GI50 (HT29 colon): 4.61 µM
TGI (HT29 colon): 16 µM
GI50 (UO-31 renal): 11.6 µM
TGI (UO-31 renal): 24.1 µM
GI50 (KM12 colon): 4.92 µM
TGI (KM12 colon): 17.9 µM
GI50 (BT-549 breast): 11.7 µM
TGI (BT-549 breast): 25 µM
GI50 (MDA-MB-231 breast): 9.08 µM
TGI (MDA-MB-231 breast): 22.1 µM
GI50 (LOX IMVI melanoma): 3.65 µM
TGI (LOX IMVI melanoma): 12.8 µM
GI50 (OVCAR-3 ovarian): 13.3 µM
TGI (OVCAR-3 ovarian): 27.7 µM
GI50 (MALME-3M melanoma): 14.1 µM
TGI (MALME-3M melanoma): 27.2 µM
GI50 (HCT-116 colon): 3.75 µM
TGI (HCT-116 colon): 14.1 µM
GI50 (MDA-MB-435): 13.4 µM
TGI (MDA-MB-435): 26.8 µM
GI50 (SF-539 CNS): 10.3 µM
TGI (SF-539 CNS): 23.6 µM
GI50 (RXF 393 renal): 4.32 µM
TGI (RXF 393 renal): 16.5 µM
GI50 (HOP-92 NSCLC): 13.1 µM
TGI (HOP-92 NSCLC): 30.1 µM
GI50 (786-0 renal): 10.6 µM
TGI (786-0 renal): 22.7 µM
GI50 (SK-OV-3 ovarian): 17.2 µM
TGI (SK-OV-3 ovarian): 49.3 µM
GI50 (SR leukemia): 2.92 µM
TGI (SR leukemia): 28.7 µM
GI50 (MOLT-4 leukemia): 6.25 µM
TGI (MOLT-4 leukemia): 39.8 µM
GI50 (T-47D breast): 4.82 µM
TGI (T-47D breast): 17.3 µM
GI50 (RPMI-8226 leukemia): 6.7 µM
TGI (RPMI-8226 leukemia): 49.9 µM
GI50 (CAKI-1 renal): 10.1 µM
TGI (CAKI-1 renal): 22.2 µM
GI50 (SK-MEL-5 melanoma): 6.05 µM
TGI (SK-MEL-5 melanoma): 18.6 µM
GI50 (K-562 leukemia): 4.87 µM
TGI (K-562 leukemia): > 100 µM
GI50 (HCC-2998 colon): 7.67 µM
TGI (HCC-2998 colon): 20.2 µM
GI50 (U251 CNS): 7.65 µM
TGI (U251 CNS): 20.2 µM
GI50 (NCI-H23 lung): 14.3 µM
TGI (NCI-H23 lung): 28.3 µM
GI50 (TK-10 renal): 17.4 µM
TGI (TK-10 renal): 32.4 µM
GI50 (NCI-H460 lung): 4.25 µM
TGI (NCI-H460 lung): 15.1 µM
GI50 (M14 melanoma): 9.86 µM
TGI (M14 melanoma): 23.9 µM
GI50 (HL-60(TB) leukemia): 11.4 µM
TGI (HL-60(TB) leukemia): 54.5 µM
GI50 (SF-295 CNS): 12 µM
TGI (SF-295 CNS): 25.6 µM
GI50 (EKVX NSCLC): 11.4 µM
TGI (EKVX NSCLC): 24.5 µM
GI50 (HCT-15 colon): 3.74 µM
TGI (HCT-15 colon): 14.7 µM
GI50 (NCI-H226 lung): 9.18 µM
TGI (NCI-H226 lung): 21.9 µM
GI50 (SNB-19 CNS): 14.9 µM
TGI (SNB-19 CNS): 31 µM
GI50 (SK-MEL-28 melanoma): 12.7 µM
TGI (SK-MEL-28 melanoma): 27.1 µM
GI50 (SW-620 colon): 7.84 µM
TGI (SW-620 colon): 21.1 µM
GI50 (SNB-75 CNS): 13.6 µM
TGI (SNB-75 CNS): 47.2 µM
GI50 (IGROV1 ovarian): 12.3 µM
TGI (IGROV1 ovarian): 26.3 µM
GI50 (COLO 205 colon): 7.98 µM
TGI (COLO 205 colon): 20.7 µM
GI50 (MDA-MB-468 breast): 3.21 µM
TGI (MDA-MB-468 breast): 12 µM
GI50 (CCRF-CEM leukemia): 6.34 µM
TGI (CCRF-CEM leukemia): 65.6 µM
GI50 (SN12C renal): 12.5 µM
TGI (SN12C renal): 25.1 µM
GI50 (OVCAR-4 ovarian): 11.4 µM
TGI (OVCAR-4 ovarian): 28.8 µM
GI50 (A549 NSCLC): 12.7 µM
TGI (A549 NSCLC): 26.4 µM
GI50 (HS 578T breast): 10.2 µM
TGI (HS 578T breast): 43.4 µM
GI50 (MCF7 breast): 5.42 µM
TGI (MCF7 breast): 18.8 µM
GI50 (UACC-257 melanoma): 15.4 µM
TGI (UACC-257 melanoma): 32.1 µM
GI50 (DU-145 prostate): 12 µM
TGI (DU-145 prostate): 27 µM
GI50 (UACC-62 melanoma): 12.9 µM
TGI (UACC-62 melanoma): 26.6 µM
GI50 (PC-3 prostate): 5.38 µM
TGI (PC-3 prostate): 40.7 µM

From PubChem BioAssay (NCI)
